Reference: ChEMBL document CHEMBL5370550, “Structure-guided optimization of adenosine mimetics as selective and potent inhibitors of coronavirus nsp14 N7-methyltransferases” (Eur J Med Chem, 2023)
pIC50: −log10 of the molar value. Calls of active or inactive are those of the source. No cut-off for these calls is given here.

Biological target: Replicase polyprotein 1ab (Severe acute respiratory syndrome-related coronavirus) (UniProt P0C6X7)
Settings: dose 5.0 µM, time 30.0 min
Cc1ccc(S(=O)(=O)N(C)C[C@H]2O[C@@H](n3cc(C#Cc4cnc5ccccc5c4)c4c(N)ncnc43)[C@H](O)[C@@H]2O)cc1Cl showed an inhibition of 1.5%.
Work on Cc1cc(S(=O)(=O)NC[C@H]2O[C@@H](n3cnc4c(=O)[nH]cnc43)[C@H](O)[C@@H]2O)ccc1Cl yielded an inhibition of 71.8%.
Work on CCN(C[C@H]1O[C@@H](n2cnc3c(NC)ncnc32)[C@H](O)[C@@H]1O)S(=O)(=O)c1ccc(OC)c(C#N)c1 yielded an inhibition of 4.3%.
In the case of CNc1ncnc2c1ncn2[C@@H]1O[C@H](CNS(=O)(=O)c2ccc(C)c(Cl)c2)[C@@H](O)[C@H]1O, the inhibition was 53.5%.
Cc1ccc(S(=O)(=O)N(C)C[C@H]2O[C@@H](n3cc(C#Cc4ccccc4)c4c(N)ncnc43)[C@H](O)[C@@H]2O)cc1[N+](=O)[O-] showed an inhibition of 1%.
CN(C[C@H]1O[C@@H](n2cc(C#Cc3cnc4ccccc4c3)c3c(N)ncnc32)[C@H](O)[C@@H]1O)S(=O)(=O)c1ccc(Br)c([N+](=O)[O-])c1 showed an inhibition of 5.5%.
CCN(C[C@H]1O[C@@H](n2cnc3c(=O)[nH]cnc32)[C@H](O)[C@@H]1O)S(=O)(=O)c1ccc(OC)c(C#N)c1 showed an inhibition of 48.1%.

Biological target: Replicase polyprotein 1ab (Severe acute respiratory syndrome coronavirus 2) (UniProt P0DTD1)
Settings: dose 5.0 µM, time 30.0 min, values are per cent of control
Cc1ccc(S(=O)(=O)N(C)C[C@H]2O[C@@H](n3cc(C#Cc4cnc5ccccc5c4)c4c(N)ncnc43)[C@H](O)[C@@H]2O)cc1Cl showed a residual activity of 3.2%.
For Cc1cc(S(=O)(=O)NC[C@H]2O[C@@H](n3cnc4c(=O)[nH]cnc43)[C@H](O)[C@@H]2O)ccc1Cl, the residual activity was 87.6%.
CCN(C[C@H]1O[C@@H](n2cnc3c(NC)ncnc32)[C@H](O)[C@@H]1O)S(=O)(=O)c1ccc(OC)c(C#N)c1 gave a residual activity of 4.2%.
CNc1ncnc2c1ncn2[C@@H]1O[C@H](CNS(=O)(=O)c2ccc(C)c(Cl)c2)[C@@H](O)[C@H]1O gave a residual activity of 45.4%.
For Cc1ccc(S(=O)(=O)N(C)C[C@H]2O[C@@H](n3cc(C#Cc4ccccc4)c4c(N)ncnc43)[C@H](O)[C@@H]2O)cc1[N+](=O)[O-], the residual activity was 1%.
Compound CN(C[C@H]1O[C@@H](n2cc(C#Cc3cnc4ccccc4c3)c3c(N)ncnc32)[C@H](O)[C@@H]1O)S(=O)(=O)c1ccc(Br)c([N+](=O)[O-])c1 has a residual activity of 5.4%.
CCN(C[C@H]1O[C@@H](n2cnc3c(=O)[nH]cnc32)[C@H](O)[C@@H]1O)S(=O)(=O)c1ccc(OC)c(C#N)c1 gave a residual activity of 30.7%.

Biological target: Nonstructural protein 5 (Dengue virus) (UniProt V5TFZ2)
Settings: dengue virus type 3; dose 5.0 µM, time 30.0 min
For Cc1ccc(S(=O)(=O)N(C)C[C@H]2O[C@@H](n3cc(C#Cc4cnc5ccccc5c4)c4c(N)ncnc43)[C@H](O)[C@@H]2O)cc1Cl, the inhibition was 97.7%.
In the case of Cc1cc(S(=O)(=O)NC[C@H]2O[C@@H](n3cnc4c(=O)[nH]cnc43)[C@H](O)[C@@H]2O)ccc1Cl, the inhibition was “inactive”.
For CNc1ncnc2c1ncn2[C@@H]1O[C@H](CNS(=O)(=O)c2ccc(C)c(Cl)c2)[C@@H](O)[C@H]1O, the inhibition was “inactive”.
With Cc1ccc(S(=O)(=O)N(C)C[C@H]2O[C@@H](n3cc(C#Cc4ccccc4)c4c(N)ncnc43)[C@H](O)[C@@H]2O)cc1[N+](=O)[O-] the inhibition was 93.3%.
With CN(C[C@H]1O[C@@H](n2cc(C#Cc3cnc4ccccc4c3)c3c(N)ncnc32)[C@H](O)[C@@H]1O)S(=O)(=O)c1ccc(Br)c([N+](=O)[O-])c1 the inhibition was “inactive”.
CCN(C[C@H]1O[C@@H](n2cnc3c(=O)[nH]cnc32)[C@H](O)[C@@H]1O)S(=O)(=O)c1ccc(OC)c(C#N)c1 showed an inhibition of 89.8%.

Biological target: T1, mRNA cap guanine-N(7) methyltransferase (Homo sapiens, UniProt O43148)
T1 sequence (O43148 whole entry): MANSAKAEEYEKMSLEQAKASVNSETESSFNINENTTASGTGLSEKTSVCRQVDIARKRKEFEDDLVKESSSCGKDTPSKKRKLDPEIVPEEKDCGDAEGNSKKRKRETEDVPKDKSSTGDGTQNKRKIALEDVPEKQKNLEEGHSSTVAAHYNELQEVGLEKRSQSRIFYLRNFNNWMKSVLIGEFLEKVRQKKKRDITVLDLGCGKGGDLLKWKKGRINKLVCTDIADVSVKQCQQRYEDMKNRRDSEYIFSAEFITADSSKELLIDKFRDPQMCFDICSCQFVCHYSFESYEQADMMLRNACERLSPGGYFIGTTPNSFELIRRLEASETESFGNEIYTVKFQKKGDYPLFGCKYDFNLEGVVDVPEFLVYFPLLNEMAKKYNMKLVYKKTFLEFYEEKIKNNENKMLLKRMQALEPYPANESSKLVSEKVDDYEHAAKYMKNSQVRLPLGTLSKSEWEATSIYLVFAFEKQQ
Settings: dose 5.0 µM, time 30.0 min
Work on Cc1ccc(S(=O)(=O)N(C)C[C@H]2O[C@@H](n3cc(C#Cc4cnc5ccccc5c4)c4c(N)ncnc43)[C@H](O)[C@@H]2O)cc1Cl yielded an inhibition of 90.7%.
For Cc1cc(S(=O)(=O)NC[C@H]2O[C@@H](n3cnc4c(=O)[nH]cnc43)[C@H](O)[C@@H]2O)ccc1Cl, the inhibition was “inactive”.
For CCN(C[C@H]1O[C@@H](n2cnc3c(NC)ncnc32)[C@H](O)[C@@H]1O)S(=O)(=O)c1ccc(OC)c(C#N)c1, the inhibition was 55.9%.
With CNc1ncnc2c1ncn2[C@@H]1O[C@H](CNS(=O)(=O)c2ccc(C)c(Cl)c2)[C@@H](O)[C@H]1O the inhibition was 92%.
With Cc1ccc(S(=O)(=O)N(C)C[C@H]2O[C@@H](n3cc(C#Cc4ccccc4)c4c(N)ncnc43)[C@H](O)[C@@H]2O)cc1[N+](=O)[O-] the inhibition was “inactive”.
CN(C[C@H]1O[C@@H](n2cc(C#Cc3cnc4ccccc4c3)c3c(N)ncnc32)[C@H](O)[C@@H]1O)S(=O)(=O)c1ccc(Br)c([N+](=O)[O-])c1 gave an inhibition of 52.3%.
With CCN(C[C@H]1O[C@@H](n2cnc3c(=O)[nH]cnc32)[C@H](O)[C@@H]1O)S(=O)(=O)c1ccc(OC)c(C#N)c1 the inhibition was 88.9%.

Biological target: Replicase polyprotein 1ab (Severe acute respiratory syndrome coronavirus 2, UniProt P0DTD1)
Settings: not given
In the case of Cc1ccc(S(=O)(=O)N(C)C[C@H]2O[C@@H](n3cc(C#Cc4cnc5ccccc5c4)c4c(N)ncnc43)[C@H](O)[C@@H]2O)cc1Cl, the pIC50 was 8.68.
Work on CCN(C[C@H]1O[C@@H](n2cnc3c(NC)ncnc32)[C@H](O)[C@@H]1O)S(=O)(=O)c1ccc(OC)c(C#N)c1 yielded a pIC50 of 7.21.
CNc1ncnc2c1ncn2[C@@H]1O[C@H](CNS(=O)(=O)c2ccc(C)c(Cl)c2)[C@@H](O)[C@H]1O showed a pIC50 of 5.66.
In the case of Cc1ccc(S(=O)(=O)N(C)C[C@H]2O[C@@H](n3cc(C#Cc4ccccc4)c4c(N)ncnc43)[C@H](O)[C@@H]2O)cc1[N+](=O)[O-], the pIC50 was 8.02.
For CN(C[C@H]1O[C@@H](n2cc(C#Cc3cnc4ccccc4c3)c3c(N)ncnc32)[C@H](O)[C@@H]1O)S(=O)(=O)c1ccc(Br)c([N+](=O)[O-])c1, the pIC50 was 8.46.
Work on CCN(C[C@H]1O[C@@H](n2cnc3c(=O)[nH]cnc32)[C@H](O)[C@@H]1O)S(=O)(=O)c1ccc(OC)c(C#N)c1 yielded a pIC50 of 5.40.

Biological target: Replicase polyprotein 1ab (Severe acute respiratory syndrome-related coronavirus, UniProt P0C6X7)
Settings: not given
CCN(C[C@H]1O[C@@H](n2cnc3c(NC)ncnc32)[C@H](O)[C@@H]1O)S(=O)(=O)c1ccc(OC)c(C#N)c1 showed a pIC50 of 7.29.

Biological target: T1, mRNA cap guanine-N(7) methyltransferase
Settings: not given
Compound CCN(C[C@H]1O[C@@H](n2cnc3c(NC)ncnc32)[C@H](O)[C@@H]1O)S(=O)(=O)c1ccc(OC)c(C#N)c1 has a pIC50 of 4.79.

Biological target: Nonstructural protein 5 (Dengue virus, UniProt V5TFZ2)
Design: species or system dengue virus type 3
Settings: not given
With CCN(C[C@H]1O[C@@H](n2cnc3c(NC)ncnc32)[C@H](O)[C@@H]1O)S(=O)(=O)c1ccc(OC)c(C#N)c1 the IC50 was “Not Active”.

System: not listed separately
Assay: Cytotoxicity against Green monkey VeroE6/TMPRSS2 cells assessed as reduction in cell viability upto 10 uM by CellTiter Blue assay
Type: toxicity, cell-based
Settings: chlorocebus sabaeus, veroe6/tmprss2, 10 µM
With Cc1ccc(S(=O)(=O)N(C)C[C@H]2O[C@@H](n3cc(C#Cc4cnc5ccccc5c4)c4c(N)ncnc43)[C@H](O)[C@@H]2O)cc1Cl the Activity was “Non-Toxic”.
For Cc1ccc(S(=O)(=O)N(C)C[C@H]2O[C@@H](n3cc(C#Cc4ccccc4)c4c(N)ncnc43)[C@H](O)[C@@H]2O)cc1[N+](=O)[O-], the Activity was “Non-Toxic”.
In the case of CN(C[C@H]1O[C@@H](n2cc(C#Cc3cnc4ccccc4c3)c3c(N)ncnc32)[C@H](O)[C@@H]1O)S(=O)(=O)c1ccc(Br)c([N+](=O)[O-])c1, the Activity was “Non-Toxic”.

System: SARS-CoV-2
Assay: Antiviral activity against SARS-CoV-2 B.1 infected in Green monkey VeroE6/TMPRSS2 cells assessed as viral replication inhibition at 10 uM incubated for 2 days by qRT-PCR analysis relative to control
Type: functional
Settings: Severe acute respiratory syndrome coronavirus 2, time 2.0 day
With Cc1ccc(S(=O)(=O)N(C)C[C@H]2O[C@@H](n3cc(C#Cc4ccccc4)c4c(N)ncnc43)[C@H](O)[C@@H]2O)cc1[N+](=O)[O-] the Activity was “inactive”.

Same assay, conditions: time 2 day
With Cc1ccc(S(=O)(=O)N(C)C[C@H]2O[C@@H](n3cc(C#Cc4cnc5ccccc5c4)c4c(N)ncnc43)[C@H](O)[C@@H]2O)cc1Cl the Activity was 50%.
For CN(C[C@H]1O[C@@H](n2cc(C#Cc3cnc4ccccc4c3)c3c(N)ncnc32)[C@H](O)[C@@H]1O)S(=O)(=O)c1ccc(Br)c([N+](=O)[O-])c1, the Activity was 50%.
